This note sets out measurements from PubChem BioAssay (NCI).

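Test compounds were applied to cells in 96-well plates for 48 hours at 5 doses. At the GI50, growth is halved. TGI: concentration producing complete growth inhibition.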

Assay in all cases: inhibition of tumour cell growth, NCI panel, 48 h
Assay [1] has as its system ACHN renal.
The subject of assay [2] is EKVX NSCLC.
The subject of assay [3] is K-562 leukemia.
Assay [4] concerns SW-620 colon.
For assay [5], the system named is U251 CNS.
The subject of assay [6] is UACC-62 melanoma.
Assay [7] relates to UO-31 renal.
The subject of assay [8] is SF-539 CNS.
Assay [9] relates to SNB-19 CNS.
Assay [10] deals with T-47D breast.

With `O=c1c(/C=C/c2c(O)ccc3ccccc23)nnc2sc(-c3cccc([N+](=O)[O-])c3)nn12`, the TGI is above 100 µM in [1]; 79.4 µM in assay [2]; above 100 µM in assay [3]; above 100 µM in [4]; above 100 µM in assay [5]; 43.9 µM in [6]. This compound had a TGI in assay [7] above 100 µM.

As to `c1nncn1C12C3C4C5C3C1C5C42` (stereo not given), the TGI in assay [1], in assay [2], in assay [3], in [8], in assay [9] and in [4] was above 100 µM throughout. Besides, the TGI in assay [10] and in assay [5] was above 100 µM each time.

For `CCOC(O)C(F)(F)F` (stereo not given), the TGI in [1], in assay [3], in assay [9], in [4], in [10] and in assay [5] was above 100 µM throughout. The same compound came in with a TGI in assay [7] above 100 µM.

As to `NC(Cc1ccccc1)=NCC(=O)O`, the TGI in [1], in assay [2], in assay [3], in assay [9], in assay [4] and in assay [10] was above 100 µM in each case. The TGI in assay [5], in assay [6] and in assay [7] was above 100 µM each time.

In the case of `CCC(C)NC(=S)N/N=C(\C)c1ccccn1` (stereo not given), the TGI in [1] is 10.3 µM; in assay [8] it was 6.89 µM; in [9] it was above 100 µM; in [4], above 100 µM; in assay [10], 41.7 µM; in assay [5], above 100 µM. The TGI in assay [6] is above 30 µM; in [7] it was 16.8 µM.

In the case of `C=C(C)[C@@H]1CC[C@]2(CO)CC[C@]3(C)[C@H](CC[C@@H]4[C@@]5(C)CC[C@H](O)C(C)(C)[C@@H]5CC[C@]43C)[C@@H]12`, the TGI in [1] was 25.6 µM; in assay [2] it was 87.6 µM; in assay [3], above 100 µM; in assay [8], 33.8 µM; in [4] it was 43.5 µM; in assay [10], above 100 µM. Also, the values for the TGI in assay [5] and in assay [7] were 24.1 µM and 26 µM, respectively.

For `CCOC(=O)c1[nH]cnc1/N=N/N(C)N`, the TGI in [1], in [2], in assay [8], in assay [4], in assay [10] and in [5] was above 100 µM in each case. For the same compound, the TGI in [6] and in [7] was above 100 µM throughout.

Regarding `O=C1c2cc([N+](=O)[O-])cnc2S(=O)(=O)N1c1ccc(Br)cc1`, the TGI in assay [1], in [2], in assay [8], in assay [9], in assay [4] and in [10] was above 100 µM in each case. Further, the TGI in [5], in assay [6] and in assay [7] was above 100 µM each time.

Consider `O=C(O)C(F)(F)C(F)(F)C(F)(F)C(F)(F)C(=O)O`, for which the TGI in [1], in [2], in assay [3], in assay [9], in [4] and in assay [10] was above 100 µM throughout. The TGI in assay [5], in assay [6] and in [7] was above 100 µM each time.

On to `CCn1nc(-c2ccccc2)c2c1N(C)c1ccccc1-n1c(-c3ccccc3)nnc1-2`, for which the TGI in [1] was 26.8 µM; in [3], above 100 µM; in assay [8], 48 µM; in assay [9] it was 32.4 µM; in [4], 29.6 µM; in assay [10], 46.9 µM. The results for the TGI in assay [5], in [6] and in assay [7] were 28.2 µM, 26.6 µM and 40.5 µM, respectively.

With `COc1cc(C(=O)O[C@H](C(=O)NCCNC(=O)[C@@H](OC(=O)c2cc(OC)cc3c(C)cccc23)[C@]2(C)CO2)[C@]2(C)CO2)c2cccc(C)c2c1`, the GI50 in assay [2] was 0.21 µM; in [3], below 0.0193 µM; in [8] it was below 0.0348 µM; in assay [9], 0.22 µM; in assay [4] it was below 0.01 µM; in assay [10] it was 0.417 µM. Besides, the values for the GI50 in assay [5] and in assay [7] were 0.0225 µM and 0.137 µM, respectively. Moreover, the TGI in assay [2] is 1.55 µM; in assay [3], 15.3 µM; in assay [8], 0.371 µM; in assay [4], above 100 µM; in [10] it was 3.48 µM; in assay [5], 0.306 µM.

With `CC1(C)C2CCC1(C)C(N/C(=C(/C(Cl)=C(Cl)Cl)[N+](=O)[O-])n1nnc3ccccc31)C2` (stereo not given), the TGI is 42.1 µM in assay [1]; above 100 µM in [2]; above 100 µM in [8]; 55.7 µM in assay [9]; above 100 µM in assay [4]; above 100 µM in [10]. Moreover, the TGI in [5] is 43.3 µM; in [6] it was 46 µM; in assay [7], 51 µM.

Turning to `N#CC(c1nc2ccccc2s1)c1nc(Cl)ncc1Br` (stereo not given), the TGI was above 100 µM in assay [1]; above 100 µM in [2]; 82 µM in assay [8]; above 100 µM in assay [9]; above 100 µM in assay [4]; above 100 µM in assay [10]. The TGI in [5] and in assay [7] was above 100 µM in each case.

Regarding `CSc1nc2c(c(=O)n1C)N=C(c1ccc(Cl)cc1)CC(c1ccccc1)N2` (stereo not given), the TGI in assay [1] was 44.6 µM; in assay [2] it was 65.1 µM; in [3], 53.2 µM; in assay [8], 31.7 µM; in assay [9] it was above 100 µM; in [4], above 100 µM. Moreover, the TGI in assay [5] is above 100 µM; in assay [6] it was 34.7 µM; in assay [7] it was above 100 µM.

On to `OCc1c2c(cc3c1CC1(C3)Cc3cc4c(c(CO)c3C1)CCC4)CCC2`, for which the TGI turned out to be 22.6 µM in assay [1]; 30.5 µM in [2]; 21.9 µM in assay [3]; 32.1 µM in assay [8]; 31 µM in [10]; 29.4 µM in [5]. Moreover, the values for the TGI in assay [6] and in assay [7] were 32.6 µM and 3.22 µM, respectively.
